In PMC8206213, “An L-2-hydroxyglutarate biosensor based on specific transcriptional regulator LhgR” (Nature Communications, 2021):
Values joined by “and” are separate entries in the source; they are usually repeats but may differ in a detail not shown here. Identical values can stand only once.

Columns and labels:
[1] = system: LHGFR3N7C expressed in E. coli BL21(DE3); assay: Control biosensor LHGFR3N7C expressed in E. coli, response to added compounds; type: cell-based; conditions: Supplementary Fig. 14a
Protocol: To characterize the sensitivity and specificity of LHGFR expressed in E. coli BL21(DE3), 90 μL cell suspensions following 8 h carbon starvation were mixed with 10 μL increasing concentrations of L-2-HG or other compounds, and then added into a black 96-well plate (total 100 μL/per well), the fluorescence intensities were determined using an EnSight microplate reader (PerkinElmer, USA) and the following instrument settings: excitation at 430 nm, emission at 485 nm (mTFP) and 528 nm (Venus), time intervals of 5 min, the temperature at 37 °C, and shake at 180 rpm.

[2] = system: LHGFR0N7C expressed in HEK293FT cells; assay: Specificity of LHGFR0N7C expressed in permeabilized HEK293FT cells, 1 mM compounds; type: cell-based, human (HEK293FT cells); conditions: Supplementary Fig. 17d; Control about 1
Protocol: (§1) To characterize the sensitivity and specificity of LHGFR expressed in HEK293FT cells, cells were trypsinized 48 h following transfection and suspended in 1× Hank’s balanced salt solution supplemented with 20 mM HEPES. […] Digitonin at a concentration of 10 μM was used to induce cell permeabilization and deplete intracellular L-2-HG for in vivo response curves construction. Then, the fluorescence intensities were determined by a SpectraMax i3 fluorescence plate reader (Molecular Devices, USA) with excitation at 430 nm and emission at 485 nm (mTFP) and 528 nm (Venus). Basal L-2-HG concentration in HEK293FT cells under physiological conditions was determined by substituting the emission ratios of non-permeabilized HEK293FT cells into the calibrated in vivo response curves.

[3] = system: LHGFR0N3C expressed in HEK293FT cells; assay: Specificity of LHGFR0N3C expressed in permeabilized HEK293FT cells, 1 mM compounds; type: cell-based, human (HEK293FT cells)
Protocol: as §1

LhgR = assay: EMSA, effect of compounds on LhgR binding to the lhgR promoter region F2; parameters: species or system Pseudomonas putida W619; conditions: 30 mM compound, 10 nM F2, 70 nM LhgR
Protocol: Electrophoretic mobility shift assays (EMSAs) were carried out using the DNA fragment (F1 or F2) and purified LhgR. The DNA fragments were first amplified by primer pairs F1-F/F1-R and F2-F/F2-R, respectively. Then, either fragment at a concentration of 10 nM DNA was incubated with LhgR (0–160 nM) in 20 μL EMSA binding buffer (10 mM Tris-HCl [pH 7.4], 50 mM KCl, 0.5 mM EDTA, 10% [vol/vol] glycerol, and 1 mM dithiothreitol [DTT]). The binding reactions were carried out at 30 °C for 30 min. Electrophoresis was performed on 6% native polyacrylamide gels at 4 °C and 170 V (constant voltage) for about 45 min, followed by staining with SYBR green I (TaKaRa, China) and photographing. Analysis of the interaction between lhgO promoter region (F1) and LHGFR was performed using the same procedure.
To characterize the effector of LhgR, purified LhgR was first incubated with L-lysine, 5-aminovalerate, glutarate, L-2-HG, D-2-HG, 2-KG, or succinate at 30 °C for 15 min, followed by incubation with the added DNA fragments at 30 °C for 30 min. The mixtures were subsequently subjected to electrophoresis.

Question: What does the source list for `O=C(O)CC[C@H](O)C(=O)O` [L-2-HG, L-2-Hydroxyglutarate]?
Answer: normalized emission ratio of control biosensor expressed in E. coli ([1]; time 0 min): 1.025 and 0.9958 and 0.9991 and 1.005; normalized emission ratio of control biosensor expressed in E. coli ([1]; time 5 min): 1.029 and 0.9977 and 0.9908 and 1.001; normalized emission ratio of control biosensor expressed in E. coli ([1]; time 10 min): 1.016 and 0.9993 and 0.9928 and 0.996; normalized emission ratio of control biosensor expressed in E. coli ([1]; time 15 min): 1.012 and 0.9858 and 0.9895 and 0.9948; normalized emission ratio of control biosensor expressed in E. coli ([1]; time 20 min): 1.006 and 0.9892 and 0.9883 and 1.004; normalized emission ratio of control biosensor expressed in E. coli ([1]; time 25 min): 1.005 and 0.9958 and 0.9871 and 1.006; normalized emission ratio of control biosensor expressed in E. coli ([1]; time 30 min): 1.009 and 0.9836 and 0.9873 and 0.9978; normalized emission ratio of control biosensor expressed in E. coli ([1]; time 35 min): 1.002 (2×) and 0.988 and 0.9805; normalized emission ratio of control biosensor expressed in E. coli ([1]; time 40 min): 1.005 and 0.9884 and 0.9838 and 1.008; normalized emission ratio of control biosensor expressed in E. coli ([1]; time 45 min): 1.011 and 0.9924 and 0.993 and 1.004; normalized emission ratio of control biosensor expressed in E. coli ([1]; time 50 min): 0.997 and 0.991 and 0.9858 and 1.009; normalized emission ratio of control biosensor expressed in E. coli ([1]; time 55 min): 1.0056 and 0.9921 and 0.9909 and 1.012; normalized emission ratio of control biosensor expressed in E. coli ([1]; time 60 min): 1.003 and 0.9967 and 0.9937 and 1.007; normalized emission ratio of control biosensor expressed in E. coli ([1]; time 65 min): 0.9962 (2×) and 0.991 and 1.017; normalized emission ratio of control biosensor expressed in E. coli ([1]; time 70 min): 1.013 and 1.001 and 0.9947 and 1.016; normalized emission ratio of control biosensor expressed in E. coli ([1]; time 75 min): 1.004 and 0.9948 and 0.9987 and 1.025; normalized emission ratio of control biosensor expressed in E. coli ([1]; time 80 min): 1.011 and 1.0052 and 1.01 and 1.025; normalized emission ratio of control biosensor expressed in E. coli ([1]; time 85 min): 1.015 and 0.9941 and 1.005 and 1.023; normalized emission ratio of control biosensor expressed in E. coli ([1]; time 90 min): 1.028 and 1.011 and 1.01 and 1.022; Normalized emission ratio [2]: 1.4262 and 1.43 and 1.452; Increase of the emission ratio of LHGFR0N3C ([3]; 10 μM digitonin-permeabilized HEK293FT cells): Only exogenous L-2-HG could significantly increase the emission ratio; Normalized emission ratio ([3]; 1 mM compound, cells permeabilized with 10 μM digitonin, normalized to control): 1.418 and 1.367 and 1.404; Effect on LhgR binding to the lhgR promoter region F2 (LhgR): prevent LhgR binding to the lhgR promoter
